# Columns and labels:
# eqBuChE = eqBuChE (Equus caballus, UniProt P81908); test: BuChE inhibition, Ellman spectrophotometry; assay type: biochemical, equine; conditions: more potent than donepezil
# PC12 cells = test: CCK-8 cytotoxicity in PC12 cells; assay type: cell-based; conditions: 24 h
# BV-2 cells = test: CCK-8 cytotoxicity in BV-2 cells; assay type: cell-based; conditions: 24 h
# Kunming mice = test: In vivo acute toxicity
# [1] = test system: mice with scopolamine-induced memory impairment; test: Step-down passive avoidance test, scopolamine-induced memory impairment; assay type: in vivo
# [2] = molecular target: human recombinant BuChE (hBuChE) (Homo sapiens, UniProt P06276); test: BuChE inhibition, Ellman spectrophotometry; assay type: biochemical; conditions: stronger than donepezil
# [3] = 7d 5, 10, 20 mg/kg oral, scopolamine 3 mg/kg i.p., dose-dependent
# [4] = high-dose 20 mg/kg oral vs donepezil 10 mg/kg
# [5] = medium-dose 10 mg/kg oral vs donepezil 10 mg/kg
# Sequence of eqBuChE (P81908 whole entry): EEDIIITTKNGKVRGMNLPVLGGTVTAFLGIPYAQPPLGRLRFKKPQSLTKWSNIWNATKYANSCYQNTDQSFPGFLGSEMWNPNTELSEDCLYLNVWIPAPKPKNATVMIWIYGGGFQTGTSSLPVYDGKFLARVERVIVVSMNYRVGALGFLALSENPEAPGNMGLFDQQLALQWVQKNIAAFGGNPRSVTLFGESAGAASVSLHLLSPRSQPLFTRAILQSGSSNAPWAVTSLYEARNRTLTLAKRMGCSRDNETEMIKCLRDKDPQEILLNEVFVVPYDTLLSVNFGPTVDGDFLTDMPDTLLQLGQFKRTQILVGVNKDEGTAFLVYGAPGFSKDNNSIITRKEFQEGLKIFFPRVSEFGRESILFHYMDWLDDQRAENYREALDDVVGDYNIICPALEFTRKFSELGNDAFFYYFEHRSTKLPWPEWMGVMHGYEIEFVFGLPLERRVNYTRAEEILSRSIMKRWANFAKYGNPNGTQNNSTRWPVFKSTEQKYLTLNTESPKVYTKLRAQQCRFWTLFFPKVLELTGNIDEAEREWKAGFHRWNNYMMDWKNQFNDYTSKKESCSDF
# Sequence of human recombinant BuChE (hBuChE) (P06276 29-602): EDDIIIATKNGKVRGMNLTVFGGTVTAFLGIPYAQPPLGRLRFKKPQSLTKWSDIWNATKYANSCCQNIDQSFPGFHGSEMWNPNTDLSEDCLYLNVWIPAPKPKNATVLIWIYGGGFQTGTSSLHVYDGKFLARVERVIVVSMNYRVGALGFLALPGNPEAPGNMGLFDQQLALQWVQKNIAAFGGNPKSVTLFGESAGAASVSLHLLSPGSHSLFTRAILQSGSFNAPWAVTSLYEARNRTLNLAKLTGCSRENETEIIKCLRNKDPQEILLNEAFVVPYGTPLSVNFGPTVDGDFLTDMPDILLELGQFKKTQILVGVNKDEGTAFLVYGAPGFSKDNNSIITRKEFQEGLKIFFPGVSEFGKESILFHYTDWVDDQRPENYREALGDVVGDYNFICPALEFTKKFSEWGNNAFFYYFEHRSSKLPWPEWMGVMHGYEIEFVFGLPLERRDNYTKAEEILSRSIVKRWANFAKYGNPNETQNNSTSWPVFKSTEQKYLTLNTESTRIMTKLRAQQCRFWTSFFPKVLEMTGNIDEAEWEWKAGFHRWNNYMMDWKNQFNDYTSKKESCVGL
structure (smiles),measurement,setting,value
"C#CCN(C)CCCCCCCOCc1ccc(CN(C)c2c3c(nc4ccccc24)CCCC3)cc1 [Compound 7e, N-methyl-N-(4-(((7-(methyl(prop-2-yn-1-yl)amino)heptyl)oxy)methyl)benzyl)-1,2,3,4-tetrahydroacridin-9-amine]",eqBuChE potency relative to donepezil,eqBuChE,approximately 18 fold
"C#CCN(C)CCCCCCOCc1ccc(CN(C)c2c3c(nc4ccccc24)CCCC3)cc1 [Compound 7d, N-methyl-N-(4-(((6-(methyl(prop-2-yn-1-yl)amino)hexyl)oxy)methyl)benzyl)-1,2,3,4-tetrahydroacridin-9-amine]",Effect on cell viability,"PC12 cells; PC12, 0.325 to 2.5 μM",no significant effect
same,Effect on cell viability,"PC12 cells; PC12, above 2.5 μM",decrease in cell viability
same,Cytotoxicity,"BV-2 cells; BV-2, 10 μM",> 50%
same,Effect on cell viability,"BV-2 cells; BV-2, 0.325 to 2.5 μM",no significant effect
same,Effect on cell viability,"BV-2 cells; BV-2, above 2.5 μM",decrease in cell viability
same,"Death, abnormal behavior or dietary changes","Kunming mice; KM mice, oral 625, 1250 and 2500 mg/kg, monitored 4 h",No such effects were observed
same,Average body weight change,"Kunming mice; KM mice, single oral dose 625, 1250, 2500 mg/kg, 14 days, vs control group",comparable to that in the control group
same,"Tissue damage (HE staining of heart, liver, kidney, lung, brain)","Kunming mice; mice, 2500 mg/kg oral, day 14",no obvious signs of tissue damage
same,Latency in step-down test,[1]; [3],prolong the latency
same,Number of errors in step-down test,[1]; [3],reduce the number of errors
same,Latency compared with donepezil,[1]; [4],longer latency
same,Number of errors compared with donepezil,[1]; [4],fewer errors
same,Number of errors compared to model group,"[1]; low-dose 5 mg/kg oral, Kruskal–Wallis test, p = 0.2219",not statistically significant
same,Latency compared with donepezil,[1]; [5],similar
same,Number of errors compared with donepezil,[1]; [5],similar
"C#CCN(C)CCCCCCCOc1cccc(CN(C)c2c3c(nc4ccccc24)CCCC3)c1 [Compound 6f, N-methyl-N-(3-((7-(methyl(prop-2-yn-1-yl)amino)heptyl)oxy)benzyl)-1,2,3,4-tetrahydroacridin-9-amine]",hBuChE potency relative to donepezil,[2],approximately 7 fold
